Reference: US8148538B2, “N-alkyl-heterocyclyl carboxamide derivatives” (Bayer Cropscience AG, priority 2005, dated 2012)

What was measured:
Botrytis cinerea = test: In vivo test on Botrytis cinerea (cucumber grey mould), preventive spray on cucumber plants; conditions: under these conditions (cucumber plants, comparison compounds of prior art)
Protocol: (§1) The active ingredient tested is prepared by homogenisation in DMSO (5% of the final volume), acetone (10% of the final volume) and tween 80 10% (5 μl/mg active ingredient).
(§2) Cucumber plants (Marketer variety) in starter cups, sown on a 50/50 peat soil-pozzolana substrate and grown at 18-20° C., are treated at the cotyledon Z11 stage by spraying with the aqueous suspension described above. Plants, used as controls, are treated with an aqueous solution not containing the active material.
After 24 hours, the plants are contaminated by depositing drops of an aqueous suspension of Botrytis cinerea spores (150,000 spores per ml) on upper surface of the leaves. The spores are collected from a 15-day-old culture and are suspended in a nutrient solution composed of: • 20 g/L of gelatin • 50 g/L of cane sugar • 2 g/L of NH4NO3 • 1 g/L of KH2PO4
The contaminated cucumber plants are settled for 5/7 days in a climatic room at 15-11° C. (day/night) and at 80% relative humidity.

Alternaria brassicae = test: In vivo test on Alternaria brassicae (leaf spot of crucifers), preventive spray on radish plants; conditions: under these conditions (radish plants, comparison compound of prior art)
Protocol: The active ingredient tested is prepared by homogenisation in DMSO (5% of the final volume), acetone (10% of the final volume) and tween 80 10% (5 μl/mg active ingredient). Radish plants (Pernot variety) in starter cups, sown on a 50/50 peat soil-pozzolana substrate and grown at 18-20° C., are treated at the cotyledon stage by spraying with the aqueous suspension described above. Plants, used as controls, are treated with an aqueous solution not containing the active material. After 24 hours, the plants are contaminated by spraying them with an aqueous suspension of Alternaria brassicae spores (40,000 spores per cm^3). The spores are collected from a 12 to 13 days-old culture. The contaminated radish plants are incubated for 6-7 days at about 18° C., under a humid atmosphere. Grading is carried out 6 to 7 days after the contamination, in comparison with the control plants. Under these conditions, good (at least 70%) or total protection is observed at a dose of 500 ppm with the following compounds: 1-2, 2-2, 2-5, 3-2, 3-5, 4-3, 4-4, 4-5, 4-6, 5-4, 5-5, 5-7, 6-1, 7-1, 7-3, 7-4, 7-6, 9-3, 10-3, 10-4, 5, 10-6, 10-8, 11-1, 11-2, 12-2, 13-1, 13-3, 13-5, 15-2, 15-3, 16-4, 19-1, 20-1, 21-1, 21-2, 22-2, 22-3, 23-1, 24-1, 24-2, 25-1, 25-3, 26-2, 27-1, 28-2, 30-1, 30-2, 31-1, 32-1 and 33-2.

Sphaerotheca fuliginea = test: In vivo test on Sphaerotheca fuliginea (powdery mildew), preventive spray on gherkin plants; conditions: under these conditions (gherkin plants, comparison compounds of prior art)
Protocol: as §1
as §2, with “Gherkin” for “Cucumber”, “(Vert petit de Paris” for “(Marketer”, “20° C./23°” for “18-20°”, “at” for “at the”
After 24 hours, the plants are contaminated by spraying them with an aqueous suspension of Sphaerotheca fuliginea spores (100 000 spores per ml). The spores are collected from a contaminated plants. The contaminated gerkhin plants are incubated at about 20° C./25° C. and at 60/70% relative humidity.

Pyrenophora teres = test: In vivo test on Pyrenophora teres (barley net blotch), preventive spray on barley plants; conditions: under these conditions (barley plants, comparison compound of prior art)
Protocol: as §1
as §2, with “Barley” for “Cucumber”, “(Express” for “(Marketer”, “12°” for “18-20°”, “1-leaf” for “cotyledon Z11”, “stage (10 cm tall)” for “stage”
After 24 hours, the plants are contaminated by spraying them with an aqueous suspension of Pyrenophora teres spores (12,000 spores per ml). The spores are collected from a 12-day-old culture. The contaminated barley plants are incubated for 24 hours at about 20° C. and at 100% relative humidity, and then for 12 days at 80% relative humidity.

Structure (SMILES) | activity against Botrytis cinerea (Botrytis cinerea) | activity against Alternaria brassicae (Alternaria brassicae) | activity against Sphaerotheca fuliginea (Sphaerotheca fuliginea) | activity against Pyrenophora teres (Pyrenophora teres)
CCCCCCCCNC(=O)c1snc(Cl)c1Cl [4-dichloro-N-octylisothiazol-5-carboxamide] | did not show any activity | did not show any activity |  | 
CCC(C)NC(=O)c1cc(C)oc1C (stereo not shown) [N-sec-butyl-2,5-dimethyl-3-furamide] | did not show any activity |  | did not show any activity | did not show any activity
Cc1nnsc1C(=O)NC(C)C [N-isopropyl-4-methyl-1,2,3-thiadiazole-5-carboxamide] | did not show any activity |  | did not show any activity | 
